# Earlier results, collected in US20070225367A1, “Composition for beneficially influencing Alzheimer's disease and/or for Alzheimer's prophylaxis” (Clariant International Ltd, priority 2006, published 2007).
# Experiments:
# β-amyloid levels = details: oral administration, APP transgenic mice
# β-amyloid aggregation = β-amyloid aggregation (Homo sapiens, UniProt P05067); details: in vitro
# Chain of β-amyloid aggregation (P05067 672-713 limits assumed): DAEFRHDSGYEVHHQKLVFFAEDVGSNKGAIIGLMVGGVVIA
smiles,measurement,setting,value
[Cu] [copper],β-amyloid levels,β-amyloid levels,reduced
same,effect on β-amyloid aggregation,β-amyloid aggregation,inhibitory effect
